From patent US20140248212A1, “NON-IMMUNOGENIC POSITRON EMISSION TOMOGRAPHY REPORTER GENE SYSTEMS” (THE REGENTS OF THE UNIVERSITY OF CALIFORNIA, priority 2011, published 2014) come the findings set out here.

In one data set the target is T1, TK2-L109F (Homo sapiens, UniProt O00142, L109F).
T1 sequence (O00142 51-265 L109F): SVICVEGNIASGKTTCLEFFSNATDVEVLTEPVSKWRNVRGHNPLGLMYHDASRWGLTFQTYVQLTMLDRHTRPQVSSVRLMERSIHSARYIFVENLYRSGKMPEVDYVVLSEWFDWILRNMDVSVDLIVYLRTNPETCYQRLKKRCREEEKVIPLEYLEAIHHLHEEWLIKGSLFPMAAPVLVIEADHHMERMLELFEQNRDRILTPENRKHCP
Put plainly: Kinetic analyses of recombinant TK2 (NADH-dependent enzyme coupled assay), TK2-L109F. The conditions noted are these: 37° C., 1 mM ATP.

Another data set addresses T2, TK2-N93D/L109F (Homo sapiens, UniProt O00142, L109F/N93D).
T2 construct: hexahistidine (N, cleaved yes); SUMO (N, cleaved yes); made in house; host or cells: Escherichia coli BL21 (DE3) C41, modified pET14b
T2 sequence (O00142 51-265 N93D/L109F): T1 sequence (O00142 51-265 L109F) with N43D
Put plainly: Kinetic analyses of recombinant TK2 (NADH-dependent enzyme coupled assay), TK2-N93D/L109F. In kind it is biochemical. The protocol: FIG. 34 provides a table that illustrates the kinetics of the phosphorylation of D and L-nucleosides by the TK2 mutants. Kinase assays were performed with recombinant protein with 200 μM of the listed substrate.

Another data set deals with T3, TK2-N93D (Homo sapiens, UniProt O00142, N93D).
T3 sequence (O00142 51-265 N93D): T1 sequence (O00142 51-265 L109F) with N43D, F59L
Put plainly: Kinetic analyses of recombinant TK2 (NADH-dependent enzyme coupled assay), TK2-N93D. The conditions noted are these: 37° C., 1 mM ATP.

In a further data set the test system is TK1. Put plainly: [3H]dT uptake inhibition assay (competition with thymidine for TK1). It is filed as cell-based. From the text:
FIG. 6 provides a graph that illustrates data regarding an assay to determine whether candidate probes compete with thymidine for TK1.
Further evaluations can be carried out to precisely assess the affinity of these candidate probes for purified recombinant TK1.

Data set [1] can be described thus: Biodistribution of PET reporter probes in mice (microPET/CT). It is filed as in vivo, C57/BL6 mice. The conditions noted are these: for biodistribution in mice: C57/BL6 mice, FIG. 25B, no retention in normal tissues except clearance routes (GI tract, bladder). Here is the method: To identify candidate PRPs, eight nucleoside analogs (FIG. 7A) were synthesized that were amenable to ^18F labeling (the first criterion for PRPs). To identify PRP candidates with rapid clearance from normal tissues and low overall background (second criterion for PRGs), biodistribution studies in mice were performed. It was observed that natural (D) nucleosides had higher background than non-natural (L) nucleoside analogs. […] The next step was to identify a human nucleoside kinase that phosphorylates L-[^18F]FMAU and L-[^18F]FEAU, and can be converted into a new PRG that matches four criteria:
Initially, a group of nucleoside analogs amenable to fluorine-18 labeling were identified. These PET tracers, 5 of which were novel, were then screened to determine their biodistribution in C57/BL6 mice (n=3 for each PET tracer) through dynamic microPET scans. […] Rational design is utilized to introduce mutations into human nucleoside kinase thymidine kinase 2 (TK2) to improve the affinity of the kinase for the top candidate probe. The sensitivity and specificity of the novel PET reporter probe/gene pair was then determined in vitro and in vivo using a murine cancer model.
Animal studies were approved and carried out according to specific guidelines. C57/BL6 mice were injected with the indicated probe and underwent micro-PET/CT analyses at 1- and 3-h post probe injection (Inveon, Siemens Medical Solutions USA Inc.; microCAT; Imtek Inc.). For tumor imaging studies, SCID mice were injected subcutaneously on day −7 in the right and left flanks with 1×10^6 L1210-PRG-expressing cells in 50% v/v phosphate-buffered saline and 50% v/v Matrigel™ (BD Biosciences). For imaging experiments, mice were kept warm and under gas anesthesia (2% v/v isoflurane) and were injected intravenously with 200 μCi of ^18F-labeled probes. A 3-h interval was allowed between probe administration and microPET/CT scanning Static microPET images were acquired for 600 s. Image data were evaluated in three-dimensional histograms and reconstructed with a zoom factor of 2.1 using three-dimensional ordered set expectation maximization (OSEM) with 2 iterations followed by MAP (maximum a posteriori) reconstruction with 18 iterations (beta=0.1). Images were analyzed using OsiriX Imaging Software Version 3.8.

Data set [2] can be described thus: Microsomal stability (glucuronidation conditions). In kind it is in vitro ADME. The conditions noted are these: glucuronidation conditions (data not shown). An excerpt: Regarding condition (d), one has obtained the microsomal stability profiles for 3 out of 4 compounds (FCU, FBU and FddUrd using the glucuronidation conditions).
Another data set concerns Baf-3 cells. Put plainly: Test of mutant htk2 reporter genes in Baf-3 cells. In kind it is cell-based. An excerpt:
The sensitivity of the described mutant htk2 imaging reporter genes can be evaluated through cell culture assays and PET imaging in mouse tumor models. […] Further tests regarding the effect of expressing these reporter genes on various cells can be used to determine other potential targets. […] Several enhanced htk2 mutant reporter genes have been designed and tested. Though the examples herein describe different probes and investigate the L probes mainly in mice, other mammals and in particular, humans are also within the scope of the invention. Silico models can be used to derive additional enhanced mutants from human htk2.
A general note: Reporter assays use an easily measured gene product as a stand-in for the process of interest.

Another data set deals with L1210 cells. Description: Effect of PRG overexpression on growth and dNTP pools of L1210 cells. It is filed as cell-based, murine. Here is the method: FIG. 9 provides graphs of data that illustrate how the overexpression of sr39tk affects cell growth and intracellular dNTP pools. L1210 cells were engineered to express: TK2-N93D (▪), TK2 (▴), HSV1-sr39tk (▾), and control vector eYFP (♦). Various graphs show the growth of the L1210 cells in (A) regular media and (B) regular media supplemented with 10 μM thymidine (dT). Other graphs show total cellular dNTP pools (measured by LC-MS) in cells grown in (C) regular media and (D) regular media supplemented with 10 μM dT; (*=below limit of detection).
L1210 cells transduced to overexpress the listed genes were grown in RPMI media (+/−10 μM dT) for 48 hours. The cells were then harvested and pyrimidine nucleotide pools were obtained via […].
To overcome the negative feedback limitation of TK2, a point mutation-N93D, was engineered. The work done by Piskur and colleagues on the structurally related Drosophila melanogaster deoxyribonucleoside kinase (see, e.g. Welin, M., et al. FEBS J 272:3733-3742, 2005) led one to predict that the N93D mutation would reduce the feedback inhibition of TK2 by dTTP. […] We then determined whether the enhanced resistance to feedback inhibition translates into improved TK2-N93D catalytic activity towards the L-[^18F]FMAU substrate. […]

Numbering of substitutions follows the chain as printed. In names and notes the source's numbering stands.

Experimental for TK2-L109F: A NADH-dependent enzyme coupled assay (see, e.g. Agarwal, K. C., et al. (1978) Methods Enzymol. 51, 483-490) was used. Using a Cary UV spectrophotometer, measurements were made in triplicate at 37° C. in a buffer containing 100 mM Tris, pH 7.5, 100 mM KCl, 5 mM MgCl2, and 1 mM ATP. For data in which kobs is given, a single nucleoside concentration of 200 μM was used. For data in which both Km and kcat are given, the nucleoside concentration was varied between 15 and 500 μM. TK2 concentration in the cuvette was 400 nM. Data were fit to the Michaelis-Menten equation using SigmaPlot. […] Therefore, all of the kinetic data using the Michaelis-Menten equation without the Hill coefficient is presented.

Turning to `Cc1cn([C@@H]2C[C@@H](O)[C@H](CO)O2)c(=O)[nH]c1=O` [L-dT], the “change of Km by the L109F mutation” value on TK2-L109F is listed as “decrease in the Km”. Also, the “increase of kcat compared with TK2” value at TK2-N93D/L109F (37° C., 1 mM ATP) was determined as 54%. On TK2-N93D, the “decrease of kcat relative to WT TK2” value came out at 48%.

Consider `O=c1[nH]c(=O)n([C@H]2C[C@H]([18F])[C@@H](CO)O2)cc1Cl` [^18F-FCU, 3′-[^18F]fluoro-2′,3′-dideoxy-5-chlorouridine], for which the “phosphorylation by endogenous mammalian thymidine kinases” value (“phosphorylation” for short) in the data set with TK1 is on record as “cannot be phosphorylated”. Also, the biodistribution in mice result in data set [1] is given as “excellent biodistribution”. Besides, the “microsomal stability over time” value in data set [2] is given as “only FBU showed decrease stability over time”.

For `Nc1ccn([C@H]2C[C@H](O)[C@@H](CO)O2)c(=O)n1` [dC, deoxycytidine], on TK2-N93D/L109F (200 μM substrate), the “kobs as percentage of that of TK2” value stood at 62%.

For `O=c1[nH]c(=O)n([C@H]2C[C@H]([18F])[C@@H](CO)O2)cc1Br` [^18F-FBU, 3′-[^18F]fluoro-2′,3′-dideoxy-5-bromouridine], the “phosphorylation” value with TK1 was “cannot be phosphorylated”. Also, the biodistribution in mice entry in data set [1] is listed as “excellent biodistribution”. Moreover, the “microsomal stability over time” value in data set [2] was “decrease stability over time”.

Consider `CCc1cn([C@H]2O[C@@H](CO)[C@H](O)[C@H]2F)c(=O)[nH]c1=O` [L-[^18F]FEAU], for which the “test of reporter system with probe” value in the data set on Baf-3 cells is “successfully tested”. In data set [1] (candidate 18F nucleoside analog probes in mice, FIG. 7B), the “overall background (biodistribution)” value is reported as “lowest overall background”.

On to `O=c1[nH]c(=O)n([C@H]2C[C@H]([18F])[C@@H](CO)O2)cc1F` [^18F-FFU, 3′-[^18F]fluoro-2′,3′-dideoxy-5-fluorouridine], for which the “phosphorylation” value in the data set with TK1 is recorded as “cannot be phosphorylated”. Moreover, in data set [1], the biodistribution in mice result is listed as “excellent biodistribution”.

For the molecule `O=c1ccn([C@H]2C[C@H]([18F])[C@@H](CO)O2)c(=O)[nH]1` [^18F-FddUrd, 3′-[^18F]fluoro-2′,3′-dideoxy-uridine], the “phosphorylation” value with TK1 is listed as “cannot be phosphorylated”. For the same molecule, the biodistribution in mice result in data set [1] is “excellent biodistribution”. The “microsomal stability over time” value in data set [2] is “only FBU showed decrease stability over time”.

With `Cc1cn([C@H]2C[C@H](O)[C@@H](CO)O2)c(=O)[nH]c1=O` [D-dT, D-thymidine], on TK2-L109F, the “change of Km by the L109F mutation” value is “decrease in the Km”. Further, at TK2-N93D/L109F (37° C., 1 mM ATP), the “decrease of kcat compared with TK2” value came out at 49%. On TK2-N93D, the “decrease of kcat relative to WT TK2” value was 77% and the “decrease of kcat/Km compared with WT TK2” value worked out at 60%.

B1: TK2-N93D: truncated human thymidine kinase 2 with N93D point mutation, PET reporter gene product (SEQ ID NO: 3) (protein, listed as Homo sapiens)
chain: MSVICVEGNIASGKTTCLEFFSNATDVEVLTEPVSKWRNVRGHDPLGLMYHDASRWGLTLQTYVQLTMLDRHTRPQVSSVRLMERSIHSARYIFVENLYRSGKMPEVDYVVLSEWFDWILRNMDVSVDLIVYLRTNPETCYQRLKKRCREEEKVIPLEYLEAIHHLHEEWLIKGSLFPMAAPVLVIEADHHMERMLELFEQNRDRILTPENRKHCP
For the molecule B1, in the data set on L1210 cells, the “growth rate of transduced cells” value is recorded as “did not affect” and the “intracellular dNTP pools” value is reported as “did not affect”.
